Eleven compounds from ChEMBL document CHEMBL5608215, “Development of amphipathic derivatives of thymol and carvacrol as potent broad-spectrum antibacterial agents” (Eur J Med Chem, 2024) can be followed below.

Experiment [1] has as its system Escherichia coli. Nature of the experiment: Bactericidal activity against Escherichia coli ATCC25922 incubated upto 24 hrs by time-kill assay. Format: functional, organism-based.
Experiment [2] concerns Staphylococcus aureus. Nature of the experiment: Antibacterial activity against methicillin-resistant Staphylococcus aureus 21-5 by CLSI based serial dilution method. Format: functional.
For experiment [3], the system named is Escherichia coli. Nature of the experiment: Bactericidal activity against Escherichia coli ATCC25922 assessed as inhibition of bacterial regrowth at 8 times MIC incubated for 24 hrs by time-kill assay. Format: functional, organism-based.
In experiment [4] the test system is Staphylococcus aureus. The experiment can be described thus: Inhibition of antibiotic-resistance in Staphylococcus aureus ATCC29213 at 0.5 times of MIC incubated for 20 days. It counts as functional. Particulars: time 20.0 day.
Experiment [5] deals with Escherichia coli. The experiment can be described thus: Bactericidal activity against Escherichia coli ATCC25922 at 8 times MIC incubated for 12 hrs by time-kill assay relative to control. It counts as functional.
The subject of experiment [6] is Staphylococcus aureus. The experiment can be described thus: Bactericidal activity against Staphylococcus aureus ATCC29213 at 8 times MIC incubated for 24 hrs by time-kill assay relative to control. It counts as functional.
The subject of the next experiment is Enterococcus faecalis. The experiment can be described thus: Antibacterial activity against Enterococcus faecalis ATCC29212 by CLSI based serial dilution method. It counts as functional.
Experiment [7] deals with Pseudomonas aeruginosa. The experiment can be described thus: Anti-biofilm activity against Pseudomonas aeruginosa ATCC27853 assessed as biofilm formation rate at 8 times MIC incubated for 48 hrs by crystal violet staining based analysis relative to control. It counts as functional.
Experiment [8] deals with Staphylococcus aureus. The experiment can be described thus: Bactericidal activity against Staphylococcus aureus ATCC29213 at MIC incubated for 24 hrs by time-kill assay. It counts as functional, organism-based.
The test system of experiment [9] is Staphylococcus aureus. The experiment can be described thus: Bactericidal activity against Staphylococcus aureus ATCC29213 assessed as log reduction in bacterial growth at 8 times MIC incubated for 24 hrs by time-kill assay. It counts as functional.
For experiment [10], the system named is Escherichia coli. The experiment can be described thus: Bactericidal activity against Escherichia coli ATCC25922 at MIC incubated for 24 hrs by time-kill assay. Format: functional, organism-based.
The subject of experiment [11] is Pseudomonas aeruginosa. Nature of the experiment: Antibacterial activity against Pseudomonas aeruginosa ATCC27853 by CLSI based serial dilution method. It counts as functional.
For experiment [12], the system named is Escherichia coli. Nature of the experiment: Antibacterial activity against Escherichia coli ATCC25922 by CLSI based serial dilution method. Format: functional.
The test system of another experiment is Enterococcus. The experiment can be described thus: Antibacterial activity against vancomycin-resistant Enterococcus ATCC51299 by CLSI based serial dilution method. It counts as functional.
The subject of experiment [13] is Staphylococcus aureus. Nature of the experiment: Bactericidal activity against Staphylococcus aureus ATCC29213 incubated upto 24 hrs by time-kill assay. Format: functional, organism-based.
Experiment [14] deals with Staphylococcus aureus. The experiment can be described thus: Antibacterial activity against Staphylococcus aureus ATCC29213 by CLSI based serial dilution method. It counts as functional.
In experiment [15] the test system is Staphylococcus aureus. Nature of the experiment: Antibacterial activity against Staphylococcus aureus ATCC29213 infected in mouse model assessed as bacterial load in abscesses at 5 mg/kg, sc measured after 24 hrs. It counts as functional.
Experiment [16] concerns Staphylococcus aureus. Nature of the experiment: Antibacterial activity against Staphylococcus aureus ATCC29213 infected in mouse model assessed as reduction in inflammatory factors in skin at 5 mg/kg, sc measured after 24 hrs by H and E staining based analysis. It counts as functional, organism-based.
Experiment [17] deals with Staphylococcus aureus. Nature of the experiment: Antibacterial activity against Staphylococcus aureus ATCC29213 infected in mouse model assessed as normalization of skin cell morphology at 5 mg/kg, sc measured after 24 hrs by H and E staining based analysis. It counts as functional, organism-based.

Structures are written as SMILES. ≈ marks a conversion by molar mass, not a printed value. Calls of active or inactive are those of the source. Bounds are passed on as bounds.

In the case of `CCCCCCN(CCCCCC)C(=O)C[N+](C)(C)CCCCOc1cc(C(C)C)ccc1C.[Br-]`, the Activity entry is “Dose-Dependent Effect” in the experiment with Escherichia coli [1]; 100% with Escherichia coli [5]; more than 99.9% in the experiment on Staphylococcus aureus [6]; 55.3% in the experiment with Pseudomonas aeruginosa [7]; more than 3 log10CFU/ml in the experiment on Staphylococcus aureus [9]; “Dose-Dependent Effect” with Staphylococcus aureus [13]. Besides, the MIC – broadly, the smallest concentration in the dilution series that meets the test's criterion for growth inhibition – against Staphylococcus aureus [2] was found to be 8 µg/mL; against Enterococcus faecalis, 0.125 µg/mL; against Pseudomonas aeruginosa [11] it was 8 µg/mL; with Escherichia coli [12], 4 µg/mL; in the experiment on Enterococcus, 0.5 µg/mL; in the experiment on Staphylococcus aureus [14], 0.5 µg/mL. The inhibition entry in the experiment on Escherichia coli [3] and in the experiment with Staphylococcus aureus [4] was “Active” throughout. Further, the result in the experiment with Staphylococcus aureus [8] and with Escherichia coli [10] was inactive.
With `CCn1cc(C(=O)O)c(=O)c2cc(F)c(N3CCNCC3)cc21`, the inhibition entry with Staphylococcus aureus [4] is “inactive”.
Take `CN[C@H](CC(C)C)C(=O)N[C@H]1C(=O)N[C@@H](CC(N)=O)C(=O)N[C@H]2C(=O)N[C@H]3C(=O)N[C@H](C(=O)N[C@H](C(=O)O)c4cc(O)cc(O)c4-c4cc3ccc4O)[C@H](O)c3ccc(c(Cl)c3)Oc3cc2cc(c3O[C@@H]2O[C@H](CO)[C@@H](O)[C@H](O)[C@H]2O[C@H]2C[C@](C)(N)[C@H](O)[C@H](C)O2)Oc2ccc(cc2Cl)[C@H]1O` [VANCOMYCIN]: the Activity with Staphylococcus aureus [15] was determined as 3.2 log10CFU/g. In addition, the MIC was 2 µg/mL (≈ 1.38 µM) against Enterococcus faecalis, more than 128 µg/mL in the experiment with Pseudomonas aeruginosa [11], 128 µg/mL (≈ 88.3 µM) against Escherichia coli [12] and more than 128 µg/mL in the experiment on Enterococcus. The result in the experiment on Staphylococcus aureus [16] and with Staphylococcus aureus [17] was Active.
`Cc1ccc(C(C)C)cc1OCCC[N+](C)(C)CC(=O)N1CCSCC1.[Br-]`: the MIC with Staphylococcus aureus [2] was 128 µg/mL; in the experiment with Enterococcus faecalis, 64 µg/mL; with Pseudomonas aeruginosa [11], more than 128 µg/mL; against Escherichia coli [12], 128 µg/mL; against Enterococcus it was more than 128 µg/mL; in the experiment on Staphylococcus aureus [14], 64 µg/mL.
Turning to `CCCCCCNC(=O)C[N+](C)(C)CCCOc1cc(C(C)C)ccc1C.[Br-]`, the MIC with Staphylococcus aureus [2] amounted to 8 µg/mL; against Enterococcus faecalis it was 4 µg/mL; in the experiment with Pseudomonas aeruginosa [11] it was 32 µg/mL; against Escherichia coli [12], 16 µg/mL; against Enterococcus, 8 µg/mL; against Staphylococcus aureus [14] it was 4 µg/mL.
As to `CCCCCCNC(=O)C[N+](C)(C)CCCCOc1cc(C(C)C)ccc1C.[Br-]`, the minimum inhibitory concentration (MIC) in the experiment on Staphylococcus aureus [2] is 8 µg/mL; against Enterococcus faecalis, 4 µg/mL; in the experiment with Pseudomonas aeruginosa [11], 32 µg/mL; with Escherichia coli [12] it was 16 µg/mL; in the experiment on Enterococcus, 8 µg/mL; with Staphylococcus aureus [14] it was 2 µg/mL.
For `Cc1ccc(C(C)C)c(OCCC[N+](C)(C)CC(=O)N2CCOCC2)c1.[Br-]`, the MIC in the experiment on Staphylococcus aureus [2] was more than 128 µg/mL; in the experiment on Enterococcus faecalis, more than 128 µg/mL; in the experiment with Pseudomonas aeruginosa [11], more than 128 µg/mL; with Escherichia coli [12], 128 µg/mL; with Enterococcus, more than 128 µg/mL; with Staphylococcus aureus [14], more than 128 µg/mL.
For the compound `Cc1ccc(C(C)C)c(OCCCC[N+](C)(C)CC(=O)N(CC(C)C)CC(C)C)c1.[Br-]`, the MIC against Staphylococcus aureus [2] was 4 µg/mL; with Enterococcus faecalis, 8 µg/mL; against Pseudomonas aeruginosa [11], more than 128 µg/mL; against Escherichia coli [12] it was 64 µg/mL; with Enterococcus it was 16 µg/mL; with Staphylococcus aureus [14], 4 µg/mL.
Regarding `CCCNC(=O)C[N+](C)(C)CCCCCOc1cc(C(C)C)ccc1C.[Br-]`, the MIC is 128 µg/mL against Staphylococcus aureus [2]; 64 µg/mL in the experiment on Enterococcus faecalis; more than 128 µg/mL against Pseudomonas aeruginosa [11]; 128 µg/mL in the experiment on Escherichia coli [12]; 128 µg/mL in the experiment on Enterococcus; 32 µg/mL with Staphylococcus aureus [14].
With `CCCCN(CCCC)C(=O)C[N+](C)(C)CCCCCOc1cc(C)ccc1C(C)C.[Br-]`, the MIC with Staphylococcus aureus [2] is 2 µg/mL; in the experiment with Enterococcus faecalis it was 4 µg/mL; against Pseudomonas aeruginosa [11], 128 µg/mL; against Escherichia coli [12], 32 µg/mL; in the experiment on Enterococcus, 8 µg/mL; against Staphylococcus aureus [14], 2 µg/mL.
As for `CCCCN(CCCC)C(=O)C[N+](C)(C)CCCCOc1cc(C)ccc1C(C)C.[Br-]`, the MIC with Staphylococcus aureus [2] is 2 µg/mL; with Enterococcus faecalis, 8 µg/mL; with Pseudomonas aeruginosa [11] it was more than 128 µg/mL; against Escherichia coli [12], 128 µg/mL; in the experiment on Enterococcus, 8 µg/mL; in the experiment on Staphylococcus aureus [14], 2 µg/mL.
